Earlier results as cited in patent publication EP4005587B1, “PHARMACEUTICAL COMPOSITION FOR TREATING LEVODOPA-INDUCED DYSKINESIA OR FOR SUPPRESSING PROGRESSION THEREOF” (Peptron, Inc., priority 2019, dated 2026).

Tests used:
[1] = test system: MPTP mouse model for Parkinson's disease; settings: given daily for 7 days after treatment
[2] = compared to GLP-1-Tf

exendin-4
neuro-protection [1]: not effective
rotarod performance [2]: improve rotarod performance
acute effects of L-DOPA (lesioned rats; lesioned rats): potentiated
6-OHDA induced damage (lesioned rats; rat, in vivo): reduces 6-OHDA induced damage
LIDS (lesioned rats; rat, in vivo): progressive reduction
